Article PMC12593396 (2025)

What was measured:
[1] = test system: 3WJ-T6 (DNA, junction) ACTCTTCTCGTTTTTTCGAGAGCGACTTTTTTGTCGCAGAGT; assay: ITC; details: 100 mM NaCl, 10 mM sodium cacodylate, pH 7.4, 25 °C, at ITC detection limit
[2] = test system: Cy5–3WJ-T3 (DNA, junction) CGGAACGGCACTCGTTTCGAGTGCAGCGTGGTTTCCACGCTCGTTCCG; assay: MST; details: 100 mM NaCl, 10 mM Na cacodylate
[3] = test system: 4WJ (DNA, junction) GCCTAGCATGATACTGCTACCG/CGGTAGCAGTACCGTTGGTGGC/GCCACCAACGGCGTCAACTGCC/GGCAGTTGACGTCATGCTAGGC; assay: UV melting; details: 100 mM NaCl; 10 mM Na cacodylate; 1 equivalent compound
[4] = test system: DS-21 (CD) (DNA, duplex) CCTTCACGCGAACGTAATCCT/AGGATTACGTTCGCGTGAAGG; assay: CD; details: 1 equivalent compound
[5] = test system: FAM–4WJ (DNA, junction) GCCTAGCATGATACTGCTACCG/CGGTAGCAGTACCGTTGGTGGC/GCCACCAACGGCGTCAACTGCC/GGCAGTTGACGTCATGCTAGGC; assay: MST; details: 100 mM NaCl; 10 mM Na cacodylate; not saturated, highest 100 μM
[6] = test system: DS-21 (MST) (DNA, duplex) CCTTCACGCGAACGTAATCCT/AGGATTACGTTCGCGTGAAGG; assay: MST; details: highest tested 50 μM; authors suggest Kd at best high micromolar
[7] = test system: Y-fork (DNA, junction) CGGTAGCAGTACCGTTGGTGGC/GCCACCAACGGCGTCAACTGCC; assay: PAGE competition; details: competes with 3WJ-FAM; ~22% decrease of 3WJ at 4 equivalents

| SMILES | Kd [1] | Kd ([2]; 0.1% Tween-20, 25 °C, 1 nM DNA) | ΔTm [3] | binding [4] | Kd ([1]; 0.5% acetonitrile) | Kd ([2]; 0.1% Tween, 25 °C, 20 nM DNA) | Kd [5] | binding [6] | binding [7] |
| --- | --- | --- | --- | --- | --- | --- | --- | --- | --- |
| C(=Nc1ccc(Cc2ccc(N=Cc3ccccn3)cc2)cc1)c1ccccn1.C(=Nc1ccc(Cc2ccc(N=Cc3ccccn3)cc2)cc1)c1ccccn1.C(=Nc1ccc(Cc2ccc(N=Cc3ccccn3)cc2)cc1)c1ccccn1.[Ni+2].[Ni+2] | 7.17 ± 0.51 × 10^–9 M | 5.15 ± 0.67 × 10^–10 M | 8.8 ± 1.0 °C |  |  |  |  |  |  |
| [Pt+2].[Pt+2].c1cncc(Oc2ccc(Oc3cccnc3)cc2)c1.c1cncc(Oc2ccc(Oc3cccnc3)cc2)c1.c1cncc(Oc2ccc(Oc3cccnc3)cc2)c1.c1cncc(Oc2ccc(Oc3cccnc3)cc2)c1 |  |  | 6.0 ± 1.1 °C | weak | 9.94 ± 4.36 × 10^–9 M | 1.22 ± 0.22 × 10^–8 M | > 4 µM | no | weak |
